The data set in a line: in vitro. As to conditions: human, hela cells, % viability.

Each structure is given as a SMILES string.

In the case of `NC(=O)C1CCN(C2CC(=O)NC2=O)CC1` (stereo not drawn) [CBK263290], the viability (usually a read-out of living cells in per cent, often relative to untreated cells) at 28.5 h, 10 µM turned out to be 90.3%.
As to `Cc1nc(C)c(-c2csc(Nc3ccc(S(N)(=O)=O)cc3)n2)s1` [CBK263292B], the viability at 28.5 h, 10 µM was found to be 95.8%.
Same read-out and setting: the figure for `CCOc1ccc(/N=C2/SC(C(=O)O)CC(=O)N2Cc2ccc3c(c2)OCO3)cc1` (stereo not drawn) [CBK263296] is 93.3%; for `CCNc1ncnc2c1oc1ccccc12` [CBK263298] it is 89.8%.
In the case of `COc1ccc(C(=O)CSc2nnc(-c3ccccc3)[nH]2)cc1[N+](=O)[O-]` [CBK263299], the viability at 28.5 h, 10 µM is 97.4%.
For the compound `Cc1nc2ccccn2c1-c1csc(Nc2cccc(C(=O)O)c2)n1` [CBK263303B], the viability at 28.5 h, 10 µM worked out at 92.7%.
For the compound `CCOC(=O)c1ccc(N2C(=O)CC(N3CCN(c4ncccn4)CC3)C2=O)cc1` (stereo not drawn) [CBK263306], the viability at 28.5 h, 10 µM was found to be 105%.
On to `Cc1nc(N)sc1-c1csc(Nc2ncccn2)n1` [CBK263307B], for which the viability at 28.5 h, 10 µM is 108%.
As to `CCN(CC)CCSc1nc2sc3c(c2c(=O)n1-c1ccc(OC)cc1)CCCC3` [CBK263308], the viability at 28.5 h, 10 µM was determined as 89.3%.
The same measure, in the same setting: the figure for `O=C(O)c1ccc2c(c1)C(=O)N(c1ccc(-c3nc(-c4ccccc4)c4ccccc4n3)cc1)C2=O` [CBK263311] is 101%; for `O=c1[nH]c(=O)c2nnc(N/N=C\c3ccc(O)cc3)nc2[nH]1` [CBK263312] it is 94.1%; for `Cc1ccc(S(=O)(=O)Nc2cc(Sc3nc(C)cc(C)n3)c(O)c3ccccc23)cc1` [CBK263313] it is 79%.
Still for that read-out and setting: the figure for `COc1ccc(CNCc2ccc(Cl)cc2)cc1OC` [CBK263315] is 95.4%; for `COc1cc(/C=N/Nc2ccc(C(=O)O)cc2)cc(Br)c1O` [CBK263318] it is 95.8%.
Still for that read-out and setting: under `COc1ccc(C(=O)N2CCN(Cc3cccnc3)CC2)cc1OC` [CBK263321] stands 99.3%.
With `N#C/C(=C\c1ccc(-c2ccc(C(=O)O)cc2)o1)C(=O)NCc1ccco1` [CBK263322], the viability at 28.5 h, 10 µM came to 101%.
Consider `COc1cc(OC)c(OC)cc1CN1CCN(S(=O)(=O)c2ccc(C)cc2)CC1` [CBK263323], for which the viability at 28.5 h, 10 µM amounted to 92.4%.
Take `O=C(c1cccnc1)N1CCN(Cc2cccc(Oc3ccccc3)c2)CC1` [CBK263326G]: the viability at 28.5 h, 10 µM was 101%.
For `COc1ccc(Br)cc1CN(CCc1ccc2c(c1)OCO2)Cc1cccnc1` [CBK263327G], the viability at 28.5 h, 10 µM came out at 96.8%.
Same read-out and setting: the figure for `Cc1cc(/C=N/NC(=O)c2ccc(CN3CCOCC3)cc2)c(C)n1-c1ccccc1` [CBK263329] is 100%; for `COc1ccc(S(=O)(=O)N2CCN(Cc3cc(OC)c(OC)c(OC)c3)CC2)cc1` [CBK263330] it is 89.3%; for `CCOC(=O)C1CCN(Cn2nc(O)ccc2=O)CC1` [CBK263331] it is 90.7%.
The same measure, in the same setting: under `CCN(CC)CCSc1nc(O)c(-c2ccccc2)c(=O)n1-c1ccccc1` [CBK263335C] stands 111%; under `O=C(O)c1cc(NC(=O)c2cccc(N3C(=O)c4ccccc4C3=O)c2)cc(C(=O)O)c1` [CBK263338], 96.8%; under `C=CCSc1nnc(CSc2nc3sc4c(c3c(=O)[nH]2)CCCC4)n1-c1ccccc1` [CBK263341], 94.4%.
For `COc1ccc(/C=C(/NC(=O)c2cccc(Cl)c2)C(=O)Nc2ccccc2)cc1` [CBK263342], the viability at 28.5 h, 10 µM worked out at 107%.
For the compound `O=C(O)/C(=C\c1ccccc1)NC(=O)c1cccc([N+](=O)[O-])c1` [CBK263348], the viability at 28.5 h, 10 µM came out at 96.3%.
Regarding `O=C(CN1CCCCC1)Nc1c(-c2ccccc2)c2cc(Br)ccc2[nH]c1=O` [CBK263351], the viability at 28.5 h, 10 µM amounted to 94.7%.
Consider `COc1ccc(C2C(C(=O)c3ccccc3)=C(O)C(=O)N2CCN(C)C)cc1OC` (stereo not drawn) [CBK263352], for which the viability at 28.5 h, 10 µM was 119%.
The same measure, in the same setting: the figure for `COc1ccc(S(=O)(=O)N2CCN(C(=O)COc3ccc(C)cc3)CC2)cc1` [CBK263354] is 90.2%; for `CC1CN(S(=O)(=O)c2ccc3c(c2)C(=O)c2cc(S(=O)(=O)N4CC(C)OC(C)C4)ccc2-3)CC(C)O1` (stereo not drawn) [CBK263355] it is 101%; for `O=[N+]([O-])c1ccc2nc(Sc3nc4ccccc4[nH]3)sc2c1` [CBK263356] it is 89.8%.
Turning to `O=C(O)CCN1C(=O)c2ccc(Oc3ccc([N+](=O)[O-])cc3)cc2C1=O` [CBK263357], the viability at 28.5 h, 10 µM came out at 96.2%.
Take `COc1cc(/C=C2/C(=O)NC(=O)N(c3ccccc3)C2=O)cc(Cl)c1O` [CBK263361]: the viability at 28.5 h, 10 µM (bulk resorufin, single well) was 93.3%.
Regarding `CC(C)CCc1c(O)nc(SCCN2CCOCC2)n(-c2ccccc2)c1=O` [CBK263363C], the viability at 28.5 h, 10 µM came out at 85.5%.
Still for that read-out and setting: the figure for `C=CCN(c1ccc(C(=O)O)cc1)S(=O)(=O)c1ccc(/C=C/C(=O)O)cc1` [CBK263364] is 95.8%; for `C=C(Br)Cn1c(COc2cccc3ccccc23)nc2ccccc21` [CBK263373] it is 97.3%; for `N=C(N)NS(=O)(=O)c1ccc(N/C=C\C(=O)c2ccc3ccccc3c2)cc1` [CBK263374] it is 98.6%.
The same measure, in the same setting: under `COc1cc(NS(=O)(=O)c2ccc(N/C=C3/CCc4ccccc4C3=O)cc2)nc(OC)n1` [CBK263376] stands 82.4%.
In the case of `COc1ccc(CN2CCN(CCCc3ccccc3)CC2)c(OC)c1` [CBK263378], the viability at 28.5 h, 10 µM turned out to be 95.1%.
On the same count and under the same terms, under `CC(C)CCc1c(O)nc(SCCN(C)C)[nH]c1=O` [CBK263382] stands 95.3%; under `O=C(C1=C(O)C(=O)N(Cc2cccnc2)C1c1cccc([N+](=O)[O-])c1)c1ccccc1` (stereo not drawn) [CBK263383], 107%.
Regarding `Cc1n[nH]c(C)c1CCC(=O)N/N=C\c1cccc(Oc2ccccc2)c1` [CBK263384], the viability at 28.5 h, 10 µM turned out to be 98.8%.
Same read-out and setting: the figure for `CN(C)c1ccc(C2C(C(=O)c3ccccc3)=C(O)C(=O)N2CCCC(=O)O)cc1` (stereo not drawn) [CBK263393] is 96.4%; for `Cc1n[nH]c(C)c1CCC(=O)N/N=C\c1ccc(Cl)c(Cl)c1` [CBK263395] it is 97.4%; for `Cn1cccc1-c1cc(C(=O)N/N=C/c2cccc(O)c2)[nH]n1` [CBK263397] it is 89.9%.
For the compound `CCOc1ccc(CN2CCN(C(=O)c3ccc(-c4ccccc4)cc3)CC2)cc1` [CBK263399], the viability at 28.5 h, 10 µM stood at 99.9%.
Still for that read-out and setting: under `O=C(c1cc(S(=O)(=O)N2CCCCC2)c(Cl)cc1N1CCOCC1)N1CCOCC1` [CBK263400] stands 82.5%.
On to `CCOc1cccc(N2C(=O)/C(=C\c3ccc(-c4ccc(C(=O)O)c(Cl)c4)o3)C(=O)NC2=S)c1` [CBK263403], for which the viability at 28.5 h, 10 µM (bulk resorufin, single well) amounted to 92.1%.
With `CC(C)CNc1cc(Cl)c(S(=O)(=O)NCC(C)C)cc1C(=O)O` [CBK263405], the viability at 28.5 h, 10 µM amounted to 93.5%.
For `Cc1cc(Br)ccc1N1C(=O)NC(=O)/C(=C\c2ccc(-c3ccc(S(N)(=O)=O)cc3)o2)C1=O` [CBK263413], where the note is “bulk resorufin, single well”, the viability at 28.5 h, 10 µM was 97.4%.
Turning to `O=C(CN1CCN(CCN2C(=O)c3cccc4cccc(c34)C2=O)CC1)c1ccc(F)cc1` [CBK263414B], the viability at 28.5 h, 10 µM amounted to 94.5%.
On the same count and under the same terms, under `O=C(Nc1ccc(-c2nc3ccccc3o2)c(O)c1)c1ccc(-c2ccc([N+](=O)[O-])cc2)o1` [CBK263416] stands 108%; under `COc1ccc(/N=C2\NC(=O)/C(=C\C=C\c3ccccc3)S2)cc1` [CBK263417], 94.2%.

(Values after publication PMC12040169 (PLOS Biology, 2025).)
